Source: patent publication US12629374B2, “Antimalarial agents” (Merck Sharp & Dohme LLC, priority 2020, dated 2026)

test system: ring stage parasites; test: Parasite growth potency assay, 72 hours, LDH readout; type: cell-based; settings: 72 h, parasite growth measured by LDH assay after 72 hours at 37° C.; 0.7% rings, 2% haematocrit; read-out: EC50
Procedure, shortened: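 Parasite growth was quantified by LDH assay after a −80 °C freeze-thaw. Before that, compound was incubated for 72 h at 37 °C under humidified gas with ring-stage cultures adjusted to 0.7% parasitemia and 2% haematocrit in serum- and albumax-supplemented RPMI-Hepes.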

Point of comparison: `CCC1(CC)CC(=O)N([C@H](CCN2CCOCC2)c2cccc(C(=O)N[C@@H]3c4ccccc4C[C@H]3O)c2)C(=N)N1` [Example 55, [4,4-diethyl-1-[1-[3-[[(1R,2R)-2-hydroxyindan-1-yl]carbamoyl]phenyl]-3-morpholin-4-ium-4-yl-propyl]-6-oxo-hexahydropyrimidin-2-ylidene]ammonium; 2,2,2-trifluoroacetate], EC50 9.8 nM. Against it:
- CCC1(CC)NC(=N)N(Cc2cc(F)cc(C(=O)N[C@@H]3c4ccccc4C[C@H]3O)c2)C(=O)C1C (stereo partly drawn) [Example 48, [4,4-diethyl-1-[[3-fluoro-5-[[(1R,2R)-2-hydroxyindan-1-yl]carbamoyl]phenyl]methyl]-5-methyl-6-oxo-hexahydropyrimidin-2-ylidene]ammonium; 2,2,2-trifluoroacetate] — 1.9-fold lower, 5.2 nM
- CCC[C@H](c1cc(C(=O)N[C@H]2CCOc3ccccc32)ccn1)N1C(=N)NC(CC)(CC)CC1=O [Example 49A, [1-[1-[4-[[(4S)-chroman-4-yl]carbamoyl]pyridin-1-ium-2-yl]butyl]-4,4-diethyl-6-oxo-hexahydropyrimidin-2-ylidene]ammonium; 2,2,2-trifluoroacetate] — 14-fold lower, 0.7 nM
- CCC[C@@H](c1cc(C(=O)N[C@H]2CCOc3ccccc32)ccn1)N1C(=N)NC(CC)(CC)CC1=O [Example 49B, [1-[1-[4-[[(4S)-chroman-4-yl]carbamoyl]pyridin-1-ium-2-yl]butyl]-4,4-diethyl-6-oxo-hexahydropyrimidin-2-ylidene]ammonium; 2,2,2-trifluoroacetate] — 8.7-fold higher, 85 nM
- CCC[C@H](c1cncc(C(=O)N[C@H]2CCOc3ccccc32)c1)N1C(=N)NC(CC)(CC)CC1=O [Example 50, [1-[1-[5-[[(4S)-chroman-4-yl]carbamoyl]pyridin-1-ium-3-yl]butyl]-4,4-diethyl-6-oxo-hexahydropyrimidin-2-ylidene]ammonium; 2,2,2-trifluoroacetate] — 24-fold lower, 0.4 nM
- CC[C@]1(c2ccccc2)CC(=O)N(Cc2cc(F)cc(C(=O)N[C@H]3CCOc4ccccc43)c2)C(=N)N1 [Example 52, [(4R)-1-[[3-[[(4S)-chroman-4-yl]carbamoyl]-5-fluoro-phenyl]methyl]-4-ethyl-6-oxo-4-phenyl-hexahydropyrimidin-2-ylidene]ammonium; 2,2,2-trifluoroacetate] — 2.1-fold higher, 20.1 nM
- CC[C@]1(c2ccccc2)CC(=O)N(Cc2cc(F)cc(C(=O)N[C@@H]3c4ccccc4C[C@H]3O)c2)C(=N)N1 [Example 53, [(4R)-4-ethyl-1-[[3-fluoro-5-[[(1R,2R)-2-hydroxyindan-1-yl]carbamoyl]phenyl]methyl]-6-oxo-4-phenyl-hexahydropyrimidin-2-ylidene]ammonium; 2,2,2-trifluoroacetate] — 2.6-fold higher, 25.3 nM
- CCC1(CC)CC(=O)N([C@H](CCN2CCOCC2)c2cccc(C(=O)N[C@H]3CCOc4ccccc43)c2)C(=N)N1 [Example 54, [1-[1-[3-[[(4S)-chroman-4-yl]carbamoyl]phenyl]-3-morpholin-4-ium-4-yl-propyl]-4,4-diethyl-6-oxo-hexahydropyrimidin-2-ylidene]ammonium; 2,2,2-trifluoroacetate] — 1.8-fold lower, 5.6 nM
- CCC1(CC)CC(=O)N([C@H](CCOC)c2cccc(C(=O)N[C@H]3CCOc4ccccc43)c2)C(=N)N1 [Example 56, [1-[1-[3-[[(4S)-chroman-4-yl]carbamoyl]phenyl]-3-methoxy-propyl]-4,4-diethyl-6-oxo-hexahydropyrimidin-2-ylidene]ammonium; 2,2,2-trifluoroacetate] — 20-fold lower, 0.5 nM
- CCC[C@H](c1cncc(C(=O)N[C@@H]2c3ccccc3C[C@H]2O)c1)N1C(=N)NC(CC)(CC)CC1=O [Example 57, [4,4-diethyl-1-[1-[5-[[(1R,2R)-2-hydroxyindan-1-yl]carbamoyl]pyridin-1-ium-3-yl]butyl]-6-oxo-hexahydropyrimidin-2-ylidene]ammonium; 2,2,2-trifluoroacetate] — 16-fold lower, 0.6 nM
